Reference: patent US8623601B2, “Methods of diagnosing cancer” (Cognosci, Inc., priority 2011, dated 2014)
Read-outs that look alike come from different tables or passages of the source. *1 amine or outer side, *2 acyl side, *3 side chain or, on linkers, in order; H or OH if unused. Bridges are numbered along the chain shown (N, C = ends). Roman numbers before positions name the chains, in order. [ ]: non-standard residue; d: D form. BMOE = O=C1CC([*:1])C(=O)N1CCN1C(=O)CC([*:2])C1=O; Aib = CC(C)(N)C(=O)O

Legend:
normal B-cells = assay: Cytotoxicity to normal B-cells from healthy volunteers, MTS assay; type: cell-based, human; details: normal B-cells from healthy volunteers, 72 hours, read-out: Normal ED50
Excerpt: (§1) CLL was diagnosed according to the NCl Working Group criteria (Hallek et al. 2008). Healthy volunteers and CLL patients from the Duke University and Durham Va. Medical Centers were enrolled in IRB-approved research protocols to collect clinical data and blood. Subjects gave signed informed consent prior to phlebotomy, in accordance with the Declaration of Helsinki. Blood was collected from participants into heparin-tubes, and CLL cells were purified as noted before (Weinberg et al. 2007). Briefly, CLL cells were isolated using the RosetteSep® B cell enrichment cocktail (catalog #15024/15064; Stem Cell Technologies, Vancouver, BC, Canada) according to the manufacturer's directions. This method yielded CLL cell purity of greater than 95% CD5+CD19+ B-cells as determined by flow cytometry. Normal B-lymphocytes were isolated using the EasySep® B-cell enrichment cocktail (catalog #15024/15064; Stem Cell Technologies, Vancouver, BC, Canada) according to the manufacturer's directions, with a purity of >94% CD 19+ lymphocytes.
(§2) For cytotoxicity assays, 3×10^6 CLL cells/well were cultured in 24 well tissue culture plates in 1.5 mL of Hybridoma SFM™ (Gibco, Long Island, N.Y.) as described by Levesque et al. (Levesque et al. 2001) (Levesque et al. 2003) All cultures were incubated at 37° C., 5% CO2 in air. […] (Levesque et al. 2003)
(§3) Based on the induction of apoptosis in CLL cells, we tested several analogs of COG449 for cytotoxicity against CLL cells freshly isolated from a number of patients and against normal B-cells from healthy volunteers (Table 4). Cells were cultured with the agents for 72 hours, and the viable cells were assessed for cytotoxicity using the MTS assay. […] We also analyzed the effect of shRNA-mediated knockdown of SET on the growth of B-cell lymphoma cell lines.

CLL cells = assay: CLL cell cytotoxicity, MTS assay; type: cell-based, human; details: 72 hours
Procedure: as §2, §3

[1] = Cytotoxicity to normal B-cells from healthy volunteers, MTS assay; type: cell-based, human; details: human
Excerpt: as §1, §2, §3

Ramos cells = assay: Growth inhibition / cytotoxicity in Ramos NHL cells; type: cell-based, human
Procedure: FIG. 6: SET antagonism is cytotoxic to CLL cells and inhibits NHL cell growth in vitro. (A) Dose response curves for COG445 treatment of CLL cells from 7 patients or normal B-cells from 5 volunteers. (B) Dose response curves for COG449 treatment on CLL cells from 7 patients. (C) Raji NHL cells were transduced with SET shRNA or control lentivirus and knockdown was assessed by Western blotting from two samples of each.
FIG. 7: Cytotoxicity of COG449 can be modulated by a PP2A inhibitor in Ramos cells. Ramos cells were pretreated for 5 minutes with or without 1 nM OA before treatment with 1 μM COG449. After 24 hours, cytotoxicity was assessed using the […] assay reagent to detect viable cells.
as §3

SET (α and β isoforms) = details: 10 μM biotin-labeled peptide, pull-down on beads, Western blot
Chain of SET (α and β isoforms) (Q01105 38-290 limits assumed): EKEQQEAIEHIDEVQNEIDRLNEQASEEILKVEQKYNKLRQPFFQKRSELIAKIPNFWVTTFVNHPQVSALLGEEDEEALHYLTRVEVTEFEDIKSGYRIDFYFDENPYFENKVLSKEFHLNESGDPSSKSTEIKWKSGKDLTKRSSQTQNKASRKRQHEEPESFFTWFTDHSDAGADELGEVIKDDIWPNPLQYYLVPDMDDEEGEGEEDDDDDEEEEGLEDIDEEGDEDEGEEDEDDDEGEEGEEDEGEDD
Procedure: Complexes bound to Neutravidin-Agarose (NA) beads were then detected by Western blotting. Lane 1 contains 20 μg of cell lysate as a loading control. […] Lysates were incubated with biotin reagents for 1 hr before addition of NA beads and then incubated for an additional hour. After rigorous washing, the beads were boiled in SDS PAGE buffer, separated by PAGE and blotted to nitrocellulose.
CLL cells were lysed in NP40 buffer (50 mM Tris, 0.2% NP40, 150 mM NaCl) by a single freeze thaw cycle. Lysate protein concentration was adjusted to 5 mg/mL. Streptavidin agarose beads (1 mL) were washed with 10 mL of NP40 buffer, and 0.5 mL of beads was added to 1 mL of extract. ABeads were then collected by filtration through a disposable mini-column (Bio-Rad), and the flow-through extract was collected for analysis. Following washing with 100 mL of chilled NP40 buffer, the beads were removed from the column, collected by centrifugation, and 75 μL of 4× Laemmli buffer was added. Beads were vortexed and heated to 90° C. for 10 min to ensure that all proteins were released from the beads. Proteins were separated by SDS PAGE and Western blotting was used to determine if the COG133 and COG112 peptides bound to both isoforms of SET from a CLL patient sample.

[2] = CLL cells freshly isolated from patients, read-out: CLL ED50
[3] = CLL cells from 7 patients, read-out: ED50 of cytotoxicity to CLL cells

AS(Aib)LRKL(Aib)KRLL (Ac-AS[Aib]LRKL[Aib]KRLL-NH2) [COG1410, Aib = aminoisobutyric acid]
EC50 (normal B-cells): > 20 µM | EC50 (CLL cells; [2]): 5700 ± 3000 nM

I: Ac-RQIKIWFQNRRMKWKKCLRVRLASHLRKLRKRLL-NH2 / II: Ac-RQIKIWFQNRRMKWKKCLRVRLASHLRKLRKRLL-NH2 (disulfide I:17-II:17 (inferred)) [COG445]
EC50 (normal B-cells): > 10 µM | EC50 at 72 h [1]: ≥ 10 µM | EC50 (CLL cells; [3]): 110 nM

I: Ac-RQIKIWFQNRRMKWKKCLRVRLASHLRKLRKRLL-NH2 / II: Ac-RQIKIWFQNRRMKWKKCLRVRLASHLRKLRKRLL-NH2 (linker I:17-II:17 via BMOE) [COG449]
cytotoxicity in Ramos cells (Ramos cells; 1 μM COG449, 24 hours): robust cytotoxic effect | cytotoxicity in Ramos cells with PP2A inhibitor (Ramos cells; 1 μM COG449 after pretreatment with 1 nM OA, 24 hours): partially counteracted by treatment with OA | EC50 (CLL cells; [3]): 103 nM

LLRKRLKRLHSALRVRL [COG056]
EC50 (normal B-cells): > 20 µM | EC50 (CLL cells; [2]): 12900 ± 4600 nM

LRVRLASHLRKLRKRLL [COG133]
EC50 (normal B-cells): > 20 µM | EC50 (CLL cells; [2]): 4400 ± 1500 nM | binding to SET isoforms in CLL cell lysate (SET (α and β isoforms)): binds to both SET isoforms

RQIKIWFQNRRMKWKK-C-LRVRLASHLRKLRKRLL [COG112]
EC50 (normal B-cells): > 20 µM | EC50 (CLL cells; [2]): 1400 ± 700 nM | binding to SET isoforms in CLL cell lysate (SET (α and β isoforms)): binds to both SET isoforms

oakadaic acid [reference compound]
cytotoxicity in Ramos cells (Ramos cells; 1 nM OA alone, 24 hours): not cytotoxic
